{"source": "PubChem BioAssay AID1963836", "about": "(Molecular Pharmacology Branch, DTP, NCI, 2024)", "test_system": "857933-349-R-J2-PDC complex spheroid viability", "assay": "Anticancer human tumor 857933-349-R-J2-PDC patient-derived colon adenocarcinoma cell line growth inhibition [POLQ]", "conditions": "for IC50: curve of first compound; for viability, T/C: stronger effect = lower value", "how_it_was_run": "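Three-cell-type spheroids modelling solid tumor plus stroma served as the readout system; POL inhibitors were tested individually and in combination, concentration ranges set by clinical Cmax where known.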", "key": {"[1]": {"conditions": "second compound 0.0316 µM, first compound 0.0316 µM"}, "[2]": {"conditions": "second compound 0.0316 µM, first compound 0.1 µM"}, "[3]": {"conditions": "second compound 0.0316 µM, first compound 0.316 µM"}, "[4]": {"conditions": "second compound 0.0316 µM, first compound 1 µM"}, "[5]": {"conditions": "second compound 0.0316 µM, first compound 3.16 µM"}, "[6]": {"conditions": "second compound 0.0316 µM, first compound 10 µM"}, "[7]": {"conditions": "second compound 0.1 µM, first compound 0.0316 µM"}, "[8]": {"conditions": "second compound 0.1 µM, first compound 0.1 µM"}, "[9]": {"conditions": "second compound 0.1 µM, first compound 0.316 µM"}, "[10]": {"conditions": "second compound 0.1 µM, first compound 1 µM"}, "[11]": {"conditions": "second compound 0.1 µM, first compound 3.16 µM"}, "[12]": {"conditions": "second compound 0.1 µM, first compound 10 µM"}, "[13]": {"conditions": "second compound 0.316 µM, first compound 0.0316 µM"}, "[14]": {"conditions": "second compound 0.316 µM, first compound 0.1 µM"}, "[15]": {"conditions": "second compound 0.316 µM, first compound 0.316 µM"}, "[16]": {"conditions": "second compound 0.316 µM, first compound 1 µM"}, "[17]": {"conditions": "second compound 0.316 µM, first compound 3.16 µM"}, "[18]": {"conditions": "second compound 0.316 µM, first compound 10 µM"}, "[19]": {"conditions": "second compound 1 µM, first compound 0.0316 µM"}, "[20]": {"conditions": "second compound 1 µM, first compound 0.1 µM"}, "[21]": {"conditions": "second compound 1 µM, first compound 0.316 µM"}, "[22]": {"conditions": "second compound 1 µM, first compound 1 µM"}, "[23]": {"conditions": "second compound 1 µM, first compound 3.16 µM"}, "[24]": {"conditions": "second compound 1 µM, first compound 10 µM"}, "[25]": {"conditions": "second compound 3.16 µM, first compound 0.0316 µM"}, "[26]": {"conditions": "second compound 3.16 µM, first compound 0.1 µM"}, "[27]": {"conditions": "second compound 3.16 µM, first compound 0.316 µM"}, "[28]": {"conditions": "second compound 3.16 µM, first compound 1 µM"}, "[29]": {"conditions": "second compound 3.16 µM, first compound 3.16 µM"}, "[30]": {"conditions": "second compound 3.16 µM, first compound 10 µM"}, "[31]": {"conditions": "second compound 10 µM, first compound 0.0316 µM"}, "[32]": {"conditions": "second compound 10 µM, first compound 0.1 µM"}, "[33]": {"conditions": "second compound 10 µM, first compound 0.316 µM"}, "[34]": {"conditions": "second compound 10 µM, first compound 1 µM"}, "[35]": {"conditions": "second compound 10 µM, first compound 3.16 µM"}, "[36]": {"conditions": "second compound 10 µM, first compound 10 µM"}}, "data": [{"compound": "COc1cc(C2c3cc4c(cc3C(OC3OC5COC(C)OC5C(O)C3O)C3COC(=O)C23)OCO4)cc(OC)c1O", "note": "(centres undefined) + Cc1cccc(N(C)C(=O)C2C(O)CCN2c2nc(C)cc(C(F)(F)F)c2C#N)c1;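 also: spheroids exposed to compounds for seven days before readout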", "values": [{"measurement": "IC50", "setting": "second compound 0.0316 µM", "result": 725, "unit": "nM"}, {"measurement": "IC50", "setting": "second compound 0.1 µM", "result": 547, "unit": "nM"}, {"measurement": "IC50", "setting": "second compound 0.316 µM", "result": 797, "unit": "nM"}, {"measurement": "IC50", "setting": "second compound 1 µM", "result": 541, "unit": "nM"}, {"measurement": "IC50", "setting": "second compound 3.16 µM", "result": 240, "unit": "nM"}, {"measurement": "IC50", "setting": "second compound 10 µM", "result": 323, "unit": "nM"}, {"measurement": "viability, T/C", "setting": "[1]", "result": 86.1, "unit": "%"}, {"measurement": "viability, T/C", "setting": "[2]", "result": 81.9, "unit": "%"}, {"measurement": "viability, T/C", "setting": "[3]", "result": 60, "unit": "%"}, {"measurement": "viability, T/C", "setting": "[4]", "result": 47, "unit": "%"}, {"measurement": "viability, T/C", "setting": "[5]", "result": 37.1, "unit": "%"}, {"measurement": "viability, T/C", "setting": "[6]", "result": 33.9, "unit": "%"}, {"measurement": "viability, T/C", "setting": "[7]", "result": 111, "unit": "%"}, {"measurement": "viability, T/C", "setting": "[8]", "result": 92.6, "unit": "%"}, {"measurement": "viability, T/C", "setting": "[9]", "result": 51.5, "unit": "%"}, {"measurement": "viability, T/C", "setting": "[10]", "result": 49.3, "unit": "%"}, {"measurement": "viability, T/C", "setting": "[11]", "result": 42.4, "unit": "%"}, {"measurement": "viability, T/C", "setting": "[12]", "result": 27.2, "unit": "%"}, {"measurement": "viability, T/C", "setting": "[13]", "result": 83.2, "unit": "%"}, {"measurement": "viability, T/C", "setting": "[14]", "result": 83, "unit": "%"}, {"measurement": "viability, T/C", "setting": "[15]", "result": 60, "unit": "%"}, {"measurement": "viability, T/C", "setting": "[16]", "result": 49.9, "unit": "%"}, {"measurement": "viability, T/C", "setting": "[17]", "result": 36, "unit": "%"}, {"measurement": "viability, T/C", "setting": "[18]", "result": 35.2, "unit": "%"}, {"measurement": "viability, T/C", "setting": "[19]", "result": 86.5, "unit": "%"}, {"measurement": "viability, T/C", "setting": "[20]", "result": 68.5, "unit": "%"}, {"measurement": "viability, T/C", "setting": "[21]", "result": 60.4, "unit": "%"}, {"measurement": "viability, T/C", "setting": "[22]", "result": 40, "unit": "%"}, {"measurement": "viability, T/C", "setting": "[23]", "result": 36.5, "unit": "%"}, {"measurement": "viability, T/C", "setting": "[24]", "result": 34.7, "unit": "%"}, {"measurement": "viability, T/C", "setting": "[25]", "result": 72.3, "unit": "%"}, {"measurement": "viability, T/C", "setting": "[26]", "result": 80.5, "unit": "%"}, {"measurement": "viability, T/C", "setting": "[27]", "result": 41.6, "unit": "%"}, {"measurement": "viability, T/C", "setting": "[28]", "result": 36, "unit": "%"}, {"measurement": "viability, T/C", "setting": "[29]", "result": 38, "unit": "%"}, {"measurement": "viability, T/C", "setting": "[30]", "result": 33.4, "unit": "%"}, {"measurement": "viability, T/C", "setting": "[31]", "result": 79.1, "unit": "%"}, {"measurement": "viability, T/C", "setting": "[32]", "result": 66, "unit": "%"}, {"measurement": "viability, T/C", "setting": "[33]", "result": 49.1, "unit": "%"}, {"measurement": "viability, T/C", "setting": "[34]", "result": 40.9, "unit": "%"}, {"measurement": "viability, T/C", "setting": "[35]", "result": 37.9, "unit": "%"}, {"measurement": "viability, T/C", "setting": "[36]", "result": 33.3, "unit": "%"}]}, {"compound": "O=C(c1cc(Cc2n[nH]c(=O)c3ccccc23)ccc1F)N1CCN(C(=O)C2CC2)CC1", "note": "+ Cc1cccc(N(C)C(=O)C2C(O)CCN2c2nc(C)cc(C(F)(F)F)c2C#N)c1", "values": [{"measurement": "IC50", "setting": "second compound 0.0316 µM", "result": "> 10000", "unit": "nM"}, {"measurement": "IC50", "setting": "second compound 0.1 µM", "result": "> 10000", "unit": "nM"}, {"measurement": "IC50", "setting": "second compound 0.316 µM", "result": "> 10000", "unit": "nM"}, {"measurement": "IC50", "setting": "second compound 1 µM", "result": "> 10000", "unit": "nM"}, {"measurement": "IC50", "setting": "second compound 3.16 µM", "result": "> 10000", "unit": "nM"}, {"measurement": "IC50", "setting": "second compound 10 µM", "result": "> 10000", "unit": "nM"}, {"measurement": "viability, T/C", "setting": "[1]", "result": 109, "unit": "%"}, {"measurement": "viability, T/C", "setting": "[2]", "result": 99.4, "unit": "%"}, {"measurement": "viability, T/C", "setting": "[3]", "result": 85.3, "unit": "%"}, {"measurement": "viability, T/C", "setting": "[4]", "result": 72.5, "unit": "%"}, {"measurement": "viability, T/C", "setting": "[5]", "result": 93.4, "unit": "%"}, {"measurement": "viability, T/C", "setting": "[6]", "result": 84.7, "unit": "%"}, {"measurement": "viability, T/C", "setting": "[7]", "result": 109, "unit": "%"}, {"measurement": "viability, T/C", "setting": "[8]", "result": 101, "unit": "%"}, {"measurement": "viability, T/C", "setting": "[9]", "result": 93.8, "unit": "%"}, {"measurement": "viability, T/C", "setting": "[10]", "result": 83.8, "unit": "%"}, {"measurement": "viability, T/C", "setting": "[11]", "result": 69.7, "unit": "%"}, {"measurement": "viability, T/C", "setting": "[12]", "result": 72.9, "unit": "%"}, {"measurement": "viability, T/C", "setting": "[13]", "result": 107, "unit": "%"}, {"measurement": "viability, T/C", "setting": "[14]", "result": 98.1, "unit": "%"}, {"measurement": "viability, T/C", "setting": "[15]", "result": 70.5, "unit": "%"}, {"measurement": "viability, T/C", "setting": "[16]", "result": 96.2, "unit": "%"}, {"measurement": "viability, T/C", "setting": "[17]", "result": 89.8, "unit": "%"}, {"measurement": "viability, T/C", "setting": "[18]", "result": 80.3, "unit": "%"}, {"measurement": "viability, T/C", "setting": "[19]", "result": 84.7, "unit": "%"}, {"measurement": "viability, T/C", "setting": "[20]", "result": 80.9, "unit": "%"}, {"measurement": "viability, T/C", "setting": "[21]", "result": 86.2, "unit": "%"}, {"measurement": "viability, T/C", "setting": "[22]", "result": 79, "unit": "%"}, {"measurement": "viability, T/C", "setting": "[23]", "result": 73.7, "unit": "%"}, {"measurement": "viability, T/C", "setting": "[24]", "result": 82.6, "unit": "%"}, {"measurement": "viability, T/C", "setting": "[25]", "result": 67, "unit": "%"}, {"measurement": "viability, T/C", "setting": "[26]", "result": 79.2, "unit": "%"}, {"measurement": "viability, T/C", "setting": "[27]", "result": 81.6, "unit": "%"}, {"measurement": "viability, T/C", "setting": "[28]", "result": 87.2, "unit": "%"}, {"measurement": "viability, T/C", "setting": "[29]", "result": 72.8, "unit": "%"}, {"measurement": "viability, T/C", "setting": "[30]", "result": 92.2, "unit": "%"}, {"measurement": "viability, T/C", "setting": "[31]", "result": 86.5, "unit": "%"}, {"measurement": "viability, T/C", "setting": "[32]", "result": 110, "unit": "%"}, {"measurement": "viability, T/C", "setting": "[33]", "result": 82.6, "unit": "%"}, {"measurement": "viability, T/C", "setting": "[34]", "result": 84, "unit": "%"}, {"measurement": "viability, T/C", "setting": "[35]", "result": 71.3, "unit": "%"}, {"measurement": "viability, T/C", "setting": "[36]", "result": 79.9, "unit": "%"}]}]}
